Experimental data from patent US20200317660A1, “Quinazolinone Compound and Application Thereof” (LUOXIN PHARMACEUTICAL (SHANGHAI) CO., LTD., priority 2017, published 2020).
Like-named read-outs stand apart in the source and are kept apart here.

Columns and labels:
[1] = test system: phosphorylation of PI3K downstream protein Akt in MCF7 cells; experiment: In vitro test of cells activity: ELISA of Akt phosphorylation in MCF7 cells; format: cell-based; settings: 2 h compound, insulin 10 μg/mL stimulation, pAkt ELISA, read-out: MCF7 Cell IC50
Protocol: 2. In vitro test of cells activity
By the method of ELISA, the inhibition level of the test compound on the phosphorylation of PI3K downstream protein Akt in the signaling pathway was determined in MCF7 cells line to reflect the cells activity of the compound.
Cell culture medium: complete cell culture medium (RPMI 1640+10% serum+1% L-glutamine+1% double antibody)
Serum-free medium (without serum, RPMI 1640+1% L-glutamine+1% double antibody)
The detailed procedures areas follows:
(1) MCF7 cells (ATCC® HTB-22™) were inoculated into a 96-well plate at 100 μL of cell complete medium per well (2.5*10^4 cells per well), and the cells were incubated at 37° C. and 5% CO2 for 24 hours.
(2) The complete cell culture medium was replaced with 100 μL of serum-free medium, and incubated for starvation overnight.
(3) The compound was prepared (The initial concentration of the compound is 1 mM, which was subjected to a three-fold dilution in 10 concentrations, and the compound of each concentration was then diluted 100-fold with serum-free medium). 25 μL of the diluted compound was added to the cells orifice plate.
(4) The cells were incubated at 37° C. and 5% CO2 for 2 hours.
(5) The cells in the well plate were stimulated with 10 μg/mL insulin (Sigma # I9278-5 mL), incubated for 30 minutes, and then centrifuged at 1000 rpm for 5 minutes at room temperature.
(6) 250 μL of 1× balanced salt solution (Invitrogen, #14065-056, 4° C., containing 1 mM/L Na3VO4) was added to each well to wash the cells once.
(7) 100 μL of lysis buffer (trimethylolaminomethane hydrochloride, Invitrogen, #15567-1000 ml) was added to each well, shaken at 4° C. for 60 minutes, and then centrifuged at 4000 rpm for 4 minutes.
(8) The following procedures were carried out according to the instructions of ELISA kit (TGR BioSciences # EKT002).

[2] = biological target: T1, PI3Kα (Homo sapiens, UniProt P42336); experiment: In vitro test of enzyme activity (ADP-Glo lipokinase), PI3K alpha; format: biochemical; settings: 40 μM ATP, 50 μM PIP2:3PS, 120 min
T1 construct: purchased Millipore 14-602-K
T1 sequence (P42336 whole entry): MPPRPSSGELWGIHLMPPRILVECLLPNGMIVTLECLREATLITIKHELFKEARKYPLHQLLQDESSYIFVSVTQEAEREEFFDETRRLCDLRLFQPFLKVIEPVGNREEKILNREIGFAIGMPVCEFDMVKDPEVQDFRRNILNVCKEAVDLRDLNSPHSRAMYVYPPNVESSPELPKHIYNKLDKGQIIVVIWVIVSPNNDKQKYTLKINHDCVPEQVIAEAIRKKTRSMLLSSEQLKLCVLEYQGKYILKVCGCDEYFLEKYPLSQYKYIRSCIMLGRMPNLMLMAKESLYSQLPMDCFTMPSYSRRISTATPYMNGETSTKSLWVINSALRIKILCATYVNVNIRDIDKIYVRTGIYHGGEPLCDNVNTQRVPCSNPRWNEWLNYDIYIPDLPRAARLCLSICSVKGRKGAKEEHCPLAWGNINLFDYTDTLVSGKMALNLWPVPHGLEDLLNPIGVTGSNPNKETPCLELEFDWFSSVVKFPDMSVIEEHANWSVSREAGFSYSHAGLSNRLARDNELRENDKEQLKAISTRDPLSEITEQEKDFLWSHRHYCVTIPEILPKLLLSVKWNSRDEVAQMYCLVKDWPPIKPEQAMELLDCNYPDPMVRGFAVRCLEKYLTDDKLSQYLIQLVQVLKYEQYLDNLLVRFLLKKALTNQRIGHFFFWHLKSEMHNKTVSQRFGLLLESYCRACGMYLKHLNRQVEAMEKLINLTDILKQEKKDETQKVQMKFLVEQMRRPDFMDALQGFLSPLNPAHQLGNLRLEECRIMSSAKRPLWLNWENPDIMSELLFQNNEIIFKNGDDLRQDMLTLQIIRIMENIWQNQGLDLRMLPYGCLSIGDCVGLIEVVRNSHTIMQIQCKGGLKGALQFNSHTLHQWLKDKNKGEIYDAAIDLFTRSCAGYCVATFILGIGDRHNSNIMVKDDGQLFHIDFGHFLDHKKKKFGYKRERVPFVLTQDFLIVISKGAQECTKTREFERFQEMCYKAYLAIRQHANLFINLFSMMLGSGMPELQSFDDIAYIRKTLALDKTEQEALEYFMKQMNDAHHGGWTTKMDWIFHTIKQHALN
T1 sequence (P27986 whole entry partner): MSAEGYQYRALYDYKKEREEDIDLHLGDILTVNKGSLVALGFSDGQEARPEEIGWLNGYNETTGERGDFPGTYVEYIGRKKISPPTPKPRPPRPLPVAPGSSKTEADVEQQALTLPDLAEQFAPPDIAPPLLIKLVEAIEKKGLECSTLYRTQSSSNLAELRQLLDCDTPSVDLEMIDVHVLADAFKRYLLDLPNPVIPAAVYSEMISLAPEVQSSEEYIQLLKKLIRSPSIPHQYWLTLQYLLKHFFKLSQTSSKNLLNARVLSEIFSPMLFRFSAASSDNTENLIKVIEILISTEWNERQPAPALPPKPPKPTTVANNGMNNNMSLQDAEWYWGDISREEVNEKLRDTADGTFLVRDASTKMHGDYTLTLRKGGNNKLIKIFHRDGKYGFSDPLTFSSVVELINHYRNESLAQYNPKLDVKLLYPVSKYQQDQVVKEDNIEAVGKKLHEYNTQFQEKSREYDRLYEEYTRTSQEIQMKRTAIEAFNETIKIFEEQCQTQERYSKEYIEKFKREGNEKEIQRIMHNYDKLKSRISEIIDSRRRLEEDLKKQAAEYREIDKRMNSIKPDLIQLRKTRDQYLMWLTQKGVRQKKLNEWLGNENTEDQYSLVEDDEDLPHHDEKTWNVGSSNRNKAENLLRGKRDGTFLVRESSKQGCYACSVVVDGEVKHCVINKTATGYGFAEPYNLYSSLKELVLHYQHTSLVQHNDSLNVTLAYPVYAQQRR

[3] = biological target: T2, PI3Kβ (Homo sapiens, UniProt P42338); experiment: In vitro test of enzyme activity (ADP-Glo lipokinase), PI3K beta; format: biochemical; settings: 40 μM ATP, 50 μM PIP2:3PS, 120 min
T2 construct: purchased Promega V1751
T2 sequence (P42338 whole entry): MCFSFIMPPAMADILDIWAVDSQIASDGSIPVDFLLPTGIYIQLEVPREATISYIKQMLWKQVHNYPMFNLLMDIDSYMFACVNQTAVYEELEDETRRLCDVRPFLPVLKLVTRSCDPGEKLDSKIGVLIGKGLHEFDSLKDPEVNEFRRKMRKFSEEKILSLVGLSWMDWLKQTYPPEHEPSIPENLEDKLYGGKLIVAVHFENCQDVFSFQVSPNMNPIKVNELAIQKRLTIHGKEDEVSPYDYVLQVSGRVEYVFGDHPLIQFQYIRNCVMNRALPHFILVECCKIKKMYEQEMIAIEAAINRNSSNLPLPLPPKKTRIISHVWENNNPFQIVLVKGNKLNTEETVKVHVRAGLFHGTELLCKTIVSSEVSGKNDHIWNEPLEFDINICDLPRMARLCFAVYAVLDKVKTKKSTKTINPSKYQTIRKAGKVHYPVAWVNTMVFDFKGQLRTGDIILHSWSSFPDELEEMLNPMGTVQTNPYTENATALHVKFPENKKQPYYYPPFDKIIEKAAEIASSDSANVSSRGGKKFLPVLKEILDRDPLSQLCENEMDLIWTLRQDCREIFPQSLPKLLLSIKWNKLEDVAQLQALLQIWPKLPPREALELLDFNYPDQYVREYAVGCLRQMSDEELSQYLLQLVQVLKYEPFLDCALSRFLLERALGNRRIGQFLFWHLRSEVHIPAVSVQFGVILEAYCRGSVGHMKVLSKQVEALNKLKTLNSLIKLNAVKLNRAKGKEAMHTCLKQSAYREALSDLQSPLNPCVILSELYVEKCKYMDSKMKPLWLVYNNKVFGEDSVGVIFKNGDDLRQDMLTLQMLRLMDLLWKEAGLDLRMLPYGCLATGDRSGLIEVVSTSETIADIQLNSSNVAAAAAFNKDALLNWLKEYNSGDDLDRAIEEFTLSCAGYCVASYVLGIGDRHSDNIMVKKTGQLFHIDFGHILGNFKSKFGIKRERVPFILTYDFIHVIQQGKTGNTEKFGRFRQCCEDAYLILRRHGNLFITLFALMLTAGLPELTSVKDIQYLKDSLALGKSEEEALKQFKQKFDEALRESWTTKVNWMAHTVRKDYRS
T2 sequence (P27986 whole entry partner): as the sequence (P27986 whole entry partner) above

[4] = biological target: T3, PI3Kγ (Homo sapiens, UniProt P48736); experiment: In vitro test of enzyme activity (ADP-Glo lipokinase), PI3K gamma; format: biochemical; settings: 25 μM ATP, 50 μM PIP2:3PS, 120 min
T3 construct: purchased Millipore 14-558-K
T3 sequence (P48736 whole entry): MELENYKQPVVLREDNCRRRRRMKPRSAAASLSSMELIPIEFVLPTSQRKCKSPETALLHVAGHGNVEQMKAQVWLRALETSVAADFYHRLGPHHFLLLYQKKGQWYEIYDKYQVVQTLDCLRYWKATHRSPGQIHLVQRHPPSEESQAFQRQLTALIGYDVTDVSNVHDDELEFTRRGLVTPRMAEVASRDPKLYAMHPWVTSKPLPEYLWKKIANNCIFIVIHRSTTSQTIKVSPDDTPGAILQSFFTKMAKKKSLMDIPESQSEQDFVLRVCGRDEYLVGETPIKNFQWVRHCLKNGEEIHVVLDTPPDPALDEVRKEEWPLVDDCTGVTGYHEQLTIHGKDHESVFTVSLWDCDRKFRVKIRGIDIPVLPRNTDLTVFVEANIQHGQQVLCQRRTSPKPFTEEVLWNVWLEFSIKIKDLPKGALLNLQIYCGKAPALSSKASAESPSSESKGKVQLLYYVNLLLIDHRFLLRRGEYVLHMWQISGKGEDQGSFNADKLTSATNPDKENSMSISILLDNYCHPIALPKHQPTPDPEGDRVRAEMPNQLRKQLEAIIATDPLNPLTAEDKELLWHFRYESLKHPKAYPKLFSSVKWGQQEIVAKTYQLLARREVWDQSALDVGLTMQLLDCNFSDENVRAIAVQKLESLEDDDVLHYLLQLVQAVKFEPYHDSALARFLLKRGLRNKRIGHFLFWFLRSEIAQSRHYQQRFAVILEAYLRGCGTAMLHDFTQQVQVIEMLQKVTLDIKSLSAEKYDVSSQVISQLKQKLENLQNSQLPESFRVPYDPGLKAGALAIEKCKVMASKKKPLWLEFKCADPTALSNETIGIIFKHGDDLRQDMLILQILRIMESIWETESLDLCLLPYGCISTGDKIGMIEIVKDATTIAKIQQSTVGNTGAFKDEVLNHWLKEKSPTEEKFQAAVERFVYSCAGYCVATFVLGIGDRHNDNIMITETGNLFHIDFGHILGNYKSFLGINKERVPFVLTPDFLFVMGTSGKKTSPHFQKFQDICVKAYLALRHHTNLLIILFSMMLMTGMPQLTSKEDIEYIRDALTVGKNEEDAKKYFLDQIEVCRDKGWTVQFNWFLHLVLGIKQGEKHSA
Protocol: (§1) 1. In Vitro Test of Enzyme Activity
(§2) The lipokinase reaction was carried out under the conditions of a suitable substrate and ATP, followed by two steps to detect the kinase activity with the ADP-Glo™ kit. The first step was terminating the kinase reaction, wherein the remaining ATP was completely removed and only ADP was left; the second step was adding kinase detection reagents to convert ADP to ATP, accompanied by luciferin/luciferase reaction. Finally, the output value of fluorescence value was converted into kinase activity.
(§3) Experimental materials and equipments:
(§4) 2. Kit: ADP-Glo™ Lipokinase and PIP2:3PS Kit (Promega # V1792)
(§5) The kit contains: 1 mM PIP2:3PS, 10× lipid dilution buffer, 1 M magnesium chloride, 10 mM ATP, 10 mM ADP, ADP-Glo reagent, detection buffer and detection substrate.
(§6) 3. Reaction plate: OptiPlate-384, white and transparent (PerkinElmer #6007299).
(§7) 1. 10× reaction buffer: 500 mM HEPES, pH 7.5, 500 mM NaCl, 9 mM MgCl2; BSA: 10% stock solution, homemade.
(§8) 2. Final test system conditions: 1× reaction system: 50 mM HEPES, 50 mM NaCl, 3 mM MgCl2, 0.01% BSA (freshly prepared on the day of the experiment), 1% DMSO (v/v)+/−compound
(§9) 3. Reaction system: 3 μL mixture of the enzyme and the substrate (1:1)+2 μL ATP/MgCl2 mixture+5 μL ADP-Glo reagent+10 μL detection reagent.
(§10) The detailed experimental procedures are as follows:
(§11) 1. Compound dilution: 50 nL 100×compound/DMSO was transferred to the test well plate with Echo. • For PI3Kα, the compound was diluted three-fold from the highest concentration of 0.111 mM for a total of 10 concentrations. • For PI3Kβ/PI3Kδ/PI3Kγ, the compound was three-fold diluted from the highest concentration of 1.11 mM for a total of 10 concentrations.
(§12) (1) The compound to be tested was prepared and 50 nL of 100 plus compound solution or DMSO was added to the corresponding well plate.
(§13) (2) 3.33 plate reaction buffer was prepared.
(§14) (3) 3.33 solution PIP2:3PS was prepared, PIP2:3PS was thawed for at least 1 minute before use.
(§15) (4) 2.5 mM containing 5.25 mM MgCl2 was prepared.
(§16) (5) 3.33 PI3Kα/PI3Kβ/PI3Kδ/PI3Kγ solution was prepared.
(§17) (6) The lipokinase solution and the PIP2:3PS solution were mixed in a volume ratio of 1:1.
(§18) (7) 3.33: lipokinase buffer and PIP2:3PS solution were mixed in a volume ratio of 1:1.
(§19) (8) 3 μL of buffer solution and PIP2:3PS were added to the first and the second columns of the well plate.
(§20) (9) 3 μL of the mixed solution of the enzyme and PIP2:3PS was added to the wells except the first and the second columns, centrifuged for 10 seconds (1000 rpm) and incubated at 23° C. for 20 minutes.
(§21) (10) 2 μL […] was added and well was shaken.
(§22) (11) The well plate was covered and shaken for about 30 s, then the well plate was incubated at 23° C. for 2 hours.
(§23) (12) 5 μL of ADP-Glo reagent containing 10 mM MgCl2 was added.
(§24) (13) The well plate was centrifuged at 1000 rpm for 10 seconds, and the well plate was then covered, shaken for about 30 seconds, and incubated at 23° C. for 60 minutes.
(§25) (14) 10 μL kinase detection reagent was added.
(§26) (15) The well plate was centrifuged at 1000 rpm for 10 seconds, and then incubated at 23° C. for 60 minutes.
(§27) (16) The fluorescence value was measured on the Envision instrument.

[5] = biological target: T4, PI3Kδ (Homo sapiens, UniProt O00329); experiment: In vitro test of enzyme activity (ADP-Glo lipokinase), PI3K delta; format: biochemical; settings: 40 μM ATP, 50 μM PIP2:3PS, 120 min
T4 construct: purchased Millipore 14-604-K
T4 sequence (O00329 whole entry): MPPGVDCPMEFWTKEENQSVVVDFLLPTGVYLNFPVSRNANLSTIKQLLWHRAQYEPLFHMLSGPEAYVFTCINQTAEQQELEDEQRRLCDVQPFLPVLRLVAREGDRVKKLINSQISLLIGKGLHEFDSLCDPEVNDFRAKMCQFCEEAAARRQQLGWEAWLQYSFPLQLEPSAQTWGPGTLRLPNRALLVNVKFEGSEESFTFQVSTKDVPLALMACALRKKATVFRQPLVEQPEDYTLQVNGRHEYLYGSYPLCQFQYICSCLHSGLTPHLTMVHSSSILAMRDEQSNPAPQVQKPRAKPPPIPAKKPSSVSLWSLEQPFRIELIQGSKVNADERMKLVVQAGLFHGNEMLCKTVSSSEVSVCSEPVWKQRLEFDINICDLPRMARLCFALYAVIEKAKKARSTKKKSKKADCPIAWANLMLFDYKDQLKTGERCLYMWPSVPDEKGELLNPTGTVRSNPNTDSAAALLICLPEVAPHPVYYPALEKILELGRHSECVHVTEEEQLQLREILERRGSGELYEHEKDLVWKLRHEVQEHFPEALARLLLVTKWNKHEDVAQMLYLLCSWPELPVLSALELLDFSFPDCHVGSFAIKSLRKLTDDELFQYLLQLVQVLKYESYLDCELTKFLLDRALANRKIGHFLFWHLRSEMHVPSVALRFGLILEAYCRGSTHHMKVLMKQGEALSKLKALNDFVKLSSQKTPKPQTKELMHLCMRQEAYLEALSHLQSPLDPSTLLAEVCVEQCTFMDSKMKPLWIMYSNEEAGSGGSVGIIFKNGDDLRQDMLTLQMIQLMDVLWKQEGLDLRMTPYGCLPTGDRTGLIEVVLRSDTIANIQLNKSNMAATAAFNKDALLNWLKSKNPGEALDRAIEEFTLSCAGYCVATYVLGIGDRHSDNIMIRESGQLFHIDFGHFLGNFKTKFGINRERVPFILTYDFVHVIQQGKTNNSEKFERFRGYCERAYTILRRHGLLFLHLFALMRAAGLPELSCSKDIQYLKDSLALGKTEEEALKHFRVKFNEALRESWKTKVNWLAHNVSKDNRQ
T4 sequence (P27986 whole entry partner): as the sequence (P27986 whole entry partner) above
Protocol: as §1, §2, §3, §4, §5, §6, §7, §8, §9, §10, §11, §12, §13, §14, §15, §16, §17, §18, §19, §20, §21, §22, §23, §24, §25, §26, §27

[6] = In vivo DMPK study in mice after a single administration; design: species or system female Balb/c mice; settings: oral
Protocol: Experimental objective: female Balb/c mice were used as the test animals, and the blood concentration of the compound was determined and the pharmacokinetic behavior was evaluated after a single administration.
Experimental operation: 12 healthy adult female Balb/c mice were selected, 6 for intravenous injection group and 6 for oral administration group. The compound to be tested was mixed with an appropriate amount of intravenous injection group vehicle (10% HP-betaCD: 10% solutol=1:1, pH=8), vortex-mixed and sonicated to prepare a 1.0 mg/mL clear solution, followed by filtration for subsequent use; the vehicle in the oral group was 0.5% MC/0.2% Tw80. After the test compound and the vehicle were mixed, it was vortex-mixed and sonicated to prepare a 1.0 mg/mL homogeneous suspension for subsequent use. After an intravenous administration at a dose of 1 mg/kg or an oral administration at the dose of 2 mg/kg and 10 mg/kg, whole blood of the mice was collected for a certain period of time to prepare plasma. The drug concentration was analyzed by LC-MS/MS method, and Phoenix WinNonlin software was used (Pharsight, USA) to calculate the pharmacokinetic parameters.
Cmax: the highest concentration of the drug in the body; F %: oral bioavailability; Oral DNAUC: area under the dose normalization curve; Vd: apparent volume of distribution; Cl: clearance rate; T1/2: half-life.

Compound	IC50 [1]	IC50 [2]	IC50 [3]	IC50 [4]	IC50 [5]	Cmax ([6]; 10 mpk)	Oral DNAUC (area under the dose normalization curve) ([6]; 10 mpk)	Cmax ([6]; 2 mpk)	Oral DNAUC (area under the dose normalization curve) ([6]; 2 mpk)	IC50 ([1]; Homo sapiens, MCF7, 2 h)
CNC(=O)C(C)Cn1cnc2ccc(-c3cnc(OC)c(NS(=O)(=O)c4cc(Cl)ccc4C)c3)cc2c1=O (single isomer, unassigned) [WX222]	12.6 nM	1.8 nM	361 nM	29.7 nM	20.7 nM	6.88 µM	1300 nM · h/mpk	–	–	–
COc1ncc(-c2ccc3ncn(CC(C)C(=O)NCCF)c(=O)c3c2)cc1NS(=O)(=O)c1ccc(F)cc1Cl (single isomer, unassigned) [WX067]	67.4 nM	2.47 nM	399 nM	18.3 nM	18.8 nM	–	–	3.39 µM	1047 nM · h/mpk	–
CNC(=O)C(C)Cn1cnc2ccc(-c3cnc(OC)c(NS(=O)(=O)c4ccc(F)cc4)c3)cc2c1=O (single isomer, unassigned) [WX087]	19 nM	3.35 nM	355 nM	41.3 nM	30.7 nM	5 µM	1372 nM · h/mpk	–	–	–
COc1ncc(-c2ccc3ncn(CC(C)C(N)=O)c(=O)c3c2)cc1NS(=O)(=O)c1sc(C)nc1C (single isomer, unassigned) [WX025]	23.9 nM	0.41 nM	13.2 nM	1 nM	0.47 nM	–	–	–	–	–
COc1ncc(-c2ccc3ncn(CC(C)C(=O)O)c(=O)c3c2)cc1NS(=O)(=O)c1ccc(F)cc1Cl (single isomer, unassigned) [R003, reference compound]	–	7.16 nM	426 nM	5.29 nM	85 nM	–	–	–	–	318 nM
CNC(=O)C(C)Cn1cnc2c(F)cc(-c3cnc(OC)c(NS(=O)(=O)c4ccc(F)cc4Cl)c3)cc2c1=O (single isomer, unassigned) [WX105]	193 nM	10.5 nM	1150 nM	29.2 nM	41.1 nM	–	–	–	–	–
CNC(=O)C(C)Cn1cnc2ccc(-c3cnc(OC)c(NS(=O)(=O)c4cc(Cl)ccc4Cl)c3)cc2c1=O (single isomer, unassigned) [WX183]	51.4 nM	0.95 nM	166 nM	8.21 nM	6.34 nM	25.9 µM	4867 nM · h/mpk	–	–	–
COc1ncc(-c2ccc3ncn(CCC(N)=O)c(=O)c3c2)cc1NS(=O)(=O)c1ccc(F)cc1Cl [WX001]	–	1.16 nM	68.5 nM	4.57 nM	3.88 nM	–	–	–	–	16.8 nM
CNC(=O)C(C)Cn1cnc2ccc(-c3cnc(OC)c(NS(=O)(=O)c4cc(C)ccc4Cl)c3)cc2c1=O (single isomer, unassigned) [WX214]	17.2 nM	2.22 nM	278 nM	31.4 nM	18.8 nM	8.41 µM	734 nM · h/mpk	–	–	–
COCCNC(=O)C(C)Cn1cnc2ccc(-c3cnc(OC)c(NS(=O)(=O)c4ccc(F)cc4Cl)c3)cc2c1=O (single isomer, unassigned) [WX065]	72 nM	4.9 nM	1120 nM	45.2 nM	29.7 nM	–	–	–	–	–
CNC(=O)C(C)Cn1cnc2ccc(-c3cnc(OC)c(NS(=O)(=O)c4ccc(F)cc4C)c3)cc2c1=O (single isomer, unassigned) [WX181]	9.04 nM	7.06 nM	720 nM	48.3 nM	47.4 nM	8.34 µM	882.0 nM · h/mpk	–	–	–
CNC(=O)[C@@H](C)Cn1cnc2ccc(-c3cnc(OC)c(NS(=O)(=O)c4ccc(F)cc4C(F)(F)F)c3)cc2c1=O [WX194]	84.9 nM	3.42 nM	432 nM	17 nM	16.4 nM	–	–	–	–	–
COc1ncc(-c2ccc3ncn(CC(N)C(N)=O)c(=O)c3c2)cc1NS(=O)(=O)c1ccc(F)cc1Cl (centres unmarked) [WX040]	–	5.4 nM	183 nM	39.9 nM	25.6 nM	–	–	–	–	134 nM
